Reference: patent publication US6806230B1, “Pyrimidine derivatives and herbicides containing them” (Kumiai Chemical Industry Co., Ltd., priority 1999, dated 2004)

Columns and labels:
Format in all cases: in vivo
[1] = test system: green foxtail (Se); assay: Test Example 2: herbicidal effects by upland soil treatment; conditions: dose 100 g active ingredient per 10 ares, examined on the 21st day after treatment, standards of Table 44;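 note: 0-5 growth inhibition grade; 5 = over 90%; 4 = 70-90%; 3 = 50-70%; 2 = 30-50%; 1 = 10-30%; 0 = under 10%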
Summary of the method: (§1)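 Pre-emergence test: barnyard grass and green foxtail sown in upland soil, then soil surface sprayed with wettable-powder formulation at 100 g active ingredient per 10 ares (100 l per 10 ares). Grown in greenhouse; herbicidal effect scored on a rating scale 21 days after treatment.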

[2] = test system: barnyard grass (Eo); assay: Test Example 1: herbicidal effects by flooded paddy field treatment; conditions: dose 100 gai/10a, examined on 21st day after treatment, index 0-5 per Table 44;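 note: 0-5 growth inhibition grade; 5 = over 90%; 4 = 70-90%; 3 = 50-70%; 2 = 30-50%; 1 = 10-30%; 0 = under 10%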
Summary of the method: (§2)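 Seeds were sown in puddled paddy soil in pots and flooded to 3 cm. The next day a water-diluted wettable powder was dripped onto the water surface at 100 g active ingredient per 10 ares. Plants grew in a greenhouse, and herbicidal effect was scored on a rating scale 21 days after treatment.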

[3] = test system: barnyard grass (Ec); assay: Test Example 2: herbicidal effects by upland soil treatment; set-up: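 0-5 growth inhibition grade; 5 = over 90%; 4 = 70-90%; 3 = 50-70%; 2 = 30-50%; 1 = 10-30%; 0 = under 10%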; conditions: dose 100 g active ingredient per 10 ares, examined on the 21st day after treatment, standards of Table 44
Summary of the method: as §1

[4] = test system: monochoria (Mo); assay: Test Example 1: herbicidal effects by flooded paddy field treatment; conditions: dose 100 gai/10a, examined on 21st day after treatment, index 0-5 per Table 44;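 note: 0-5 growth inhibition grade; 5 = over 90%; 4 = 70-90%; 3 = 50-70%; 2 = 30-50%; 1 = 10-30%; 0 = under 10%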
Summary of the method: as §2

[5] = test system: wheat (Tr); assay: Test Example 5: selectivity for a crop plant by soil treatment in upland field; set-up: scale not given here; conditions: dose 25 gai/10a, 21st day after treatment, index per Table 44
Procedure: (§3) In a 80 cm^2 plastic pot, upland soil was filled, and seeds of barnyard grass (Ec), green foxtail (Se), soybean (G1), wheat (Tr) and corn (Ze) were sown and covered with soil. A wettable powder prepared in accordance with Formulation Example 1 was diluted with water and uniformly applied to the soil surface by a small size spray at a rate of 100 l per 10 ares so that the dose of the active ingredient would be 25 g per 10 ares. Thereafter, cultivation was carried out in a green house, and on the 21st day after the treatment, the herbicidal effects were examined in accordance with the standards of Table 44.

[6] = test system: barnyard grass (Ec); assay: as above; set-up: scale not given here; conditions: dose 25 gai/10a, 21st day after treatment, index per Table 44
Procedure: as §3

[7] = test system: corn (Ze); assay: as above; set-up: scale not given here; conditions: dose 25 gai/10a, 21st day after treatment, index per Table 44
Procedure: as §3

[8] = test system: soybean (G1); assay: as above; set-up: scale not given here; conditions: dose 25 gai/10a, 21st day after treatment, index per Table 44
Procedure: as §3

[9] = test system: rice (Or); assay: Test Example 4: selectivity for a crop plant by flooded paddy field treatment; set-up: scale not given here; conditions: rice transplanted at second leaf stage; for Or (effect on crop plant rice, index): dose 25 g active ingredient per 10 ares, examined on the 21st day after treatment
Summary of the method: (§4)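 Paddy soil in pots was puddled, weed seeds were sown, second-leaf-stage rice was transplanted, and the pots were flooded to 3 cm. The next day a water-diluted wettable powder was dropped onto the water surface at 25 g active ingredient per 10 ares. Herbicidal effect was scored on a rating scale 21 days after treatment in a greenhouse.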

[10] = test system: monochoria (Mo); assay: as above; set-up: scale not given here; conditions: for Mo (herbicidal effects, index): dose 25 g active ingredient per 10 ares, examined on the 21st day after treatment
Summary of the method: as §4

[11] = test system: barnyard grass (Eo); assay: as above; set-up: scale not given here; conditions: for Eo (herbicidal effects, index): dose 25 g active ingredient per 10 ares, examined on the 21st day after treatment
Summary of the method: as §4

| Compound | herbicidal effects, Se (green foxtail) [1] | Herbicidal effect index, Eo [2] | herbicidal effects, Ec (barnyard grass) [3] | Herbicidal effect index, Mo [4] | Tr (herbicidal effect index on crop) [5] | Ec (herbicidal effect index) [6] | Ze (herbicidal effect index on crop) [7] | Gl (herbicidal effect index on crop) [8] | Or (effect on crop plant rice, index) [9] | Mo (herbicidal effects, index) [10] | Eo (herbicidal effects, index) [11] | Or (herbicidal effect index on crop) ([9]; dose 25 gai/10a, 21st day after treatment, index per Table 44) | Mo (herbicidal effect index) ([10]; monochoria, dose 25 gai/10a, 21st day after treatment, index per Table 44) | Eo (herbicidal effect index) ([11]; barnyard grass, dose 25 gai/10a, 21st day after treatment, index per Table 44) |
| --- | --- | --- | --- | --- | --- | --- | --- | --- | --- | --- | --- | --- | --- | --- |
| CC(C)C(c1cncnc1C(F)(F)F)N(C)C(=O)Cc1ccc(C#N)cc1 (racemic) [Compound 1-75] | 5 | 5 | 5 | 5 | 3 | 4 | 2 | 0 |  |  |  |  |  |  |
| CC(C)c1ccc(CC(=O)N(C)C(c2cncnc2C(F)(F)F)C(C)C)cc1 (racemic) [Compound 1-68] | 5 | 5 | 5 | 5 | 2 | 4 | 2 | 0 |  |  |  |  |  |  |
| CC(C)C(c1cncnc1C(F)(F)F)N(C)C(=O)C=Cc1ccccc1 (racemic) [Compound 1-85] | 5 | 5 | 5 | 5 | 1 | 4 | 0 | 0 | 0 | 5 | 5 |  |  |  |
| CC(C)C(c1cncnc1C(F)(F)F)N(C)C(=O)Cc1cccc(Br)c1 (racemic) [Compound 1-70] | 5 | 5 | 5 | 5 | 4 | 5 | 1 | 1 |  |  |  |  |  |  |
| Cc1cccc(CC(=O)N(C)C(c2cncnc2C(F)(F)F)C(C)C)c1 (racemic) [Compound 1-51] | 5 | 5 | 5 | 5 | 1 | 5 | 0 | 0 | 1 | 5 | 5 |  |  |  |
| CC#Cc1ccc(CC(=O)N(C)C(c2cncnc2C(F)(F)F)C(C)C)cc1 (racemic) [Compound 1-84] |  | 5 |  | 5 | 1 | 4 | 0 | 0 | 0 | 5 | 5 |  |  |  |
| CCCN(C(=O)Cc1ccc(C#N)cc1)C(c1cncnc1C(F)(F)F)C(C)C (racemic) [Compound 1-99] | 5 | 5 | 5 | 5 | 3 | 4 | 0 | 0 |  |  |  | 1 | 5 | 5 |
| CCC(c1cncnc1C(F)(F)F)N(C)C(=O)Cc1ccc(F)cc1 (racemic) [Compound 1-33] | 5 | 5 | 5 | 5 | 2 | 4 | 1 | 0 | 1 | 5 | 5 |  |  |  |
| CC(C)C(c1cncnc1C(F)(F)F)N(C)C(=O)CCc1ccccc1 (racemic) [Compound 1-77] | 5 |  | 5 |  | 3 | 5 | 2 | 1 |  |  |  |  |  |  |
| CC(C)C(c1cncnc1C(F)(F)F)N(C)C(=O)COc1ccccc1 (racemic) [Compound 1-64] | 5 | 5 | 5 | 5 | 3 | 4 | 0 | 2 |  |  |  |  |  |  |
| CCCN(C(=O)Cc1ccc(Cl)cc1)C(c1cncnc1C(F)(F)F)C(C)C (racemic) [Compound 1-49] | 4 | 5 | 5 | 5 | 0 | 5 | 3 | 1 | 0 | 5 | 5 |  |  |  |
| Cc1ccc(CC(=O)N(C)C(c2cncnc2C(F)(F)F)C(C)C)cc1 (racemic) [Compound 1-23] | 5 | 5 | 5 | 5 | 2 | 5 | 1 |  | 1 | 5 | 5 |  |  |  |
| CC(C)C(c1cncnc1C(F)(F)F)N(C)C(=O)COc1ccc(Cl)cc1 (racemic) [Compound 1-65] | 5 | 5 | 5 | 5 | 0 | 5 | 0 | 0 |  |  |  |  |  |  |
| CC(C)C(c1cncnc1C(F)(F)F)N(C)C(=O)Cc1ccc(Cl)c(Cl)c1 (racemic) [Compound 1-45] | 5 | 5 | 5 | 5 | 2 | 4 | 0 | 0 | 0 | 5 | 5 |  |  |  |
| CC(C)Oc1ccc(CC(=O)N(C)C(c2cncnc2C(F)(F)F)C(C)C)cc1 (racemic) [Compound 1-97] | 5 | 5 | 5 | 5 | 1 | 4 | 0 | 3 | 0 | 5 | 5 |  |  |  |
| COCc1ccc(CC(=O)N(C)C(c2cncnc2C(F)(F)F)C(C)C)cc1 (racemic) [Compound 1-76] | 5 | 5 | 5 | 5 | 2 | 4 | 2 | 0 | 0 | 5 | 5 |  |  |  |
| CC(C)C(c1cncnc1C(F)(F)F)N(C(=O)Cc1ccccc1)C1CC1 (racemic) [Compound 1-80] | 5 | 5 | 5 | 5 | 5 | 5 | 1 | 0 |  |  |  |  |  |  |
| CC(C)C(c1cncnc1C(F)(F)Cl)N(C)C(=O)Cc1ccccc1 (racemic) [Compound 1-15] | 5 | 5 | 5 | 5 | 1 | 5 | 1 |  |  |  |  |  |  |  |
